pEC50: −log10 of the molar value.

The assay has as its target T1, human GPR119 (Homo sapiens, UniProt Q8TDV5).
T1 construct: expressed in transfected cells
T1 sequence (Q8TDV5 1-335): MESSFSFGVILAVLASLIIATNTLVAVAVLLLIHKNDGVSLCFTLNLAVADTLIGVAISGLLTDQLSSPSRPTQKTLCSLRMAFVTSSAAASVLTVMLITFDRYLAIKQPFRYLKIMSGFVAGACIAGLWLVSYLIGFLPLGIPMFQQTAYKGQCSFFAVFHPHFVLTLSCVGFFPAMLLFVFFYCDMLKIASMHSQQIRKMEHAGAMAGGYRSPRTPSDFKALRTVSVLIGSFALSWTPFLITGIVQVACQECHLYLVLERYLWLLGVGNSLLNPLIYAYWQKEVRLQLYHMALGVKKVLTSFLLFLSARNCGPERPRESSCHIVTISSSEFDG
Put plainly: Functional cellular assay measuring GPR119-mediated cAMP release (HTRF) in HEK-293 cells stably expressing recombinant human GPR119. Conditions: cAMP response, cell line expressing human GPR119, 30 minutes at room temperature. It counts as cell-based. On the procedure:
Functional Cellular Assays Measuring GPR119-Mediated cAMP Release
Compounds of the invention, which are agonists of GPR119, were characterized by functional assays measuring the cAMP response of HEK-293 cell lines stably expressing recombinant GPR119 from man, mouse or rat, or by using a hamster cell line HIT-T15 expressing GPR119 endogenously. The cAMP content was determined using a kit based on homogenous time-resolved fluorescence (HTRF) from Cisbio Corp. (cat. no. 62AM4PEC). For preparation, cells were split into T175 culture flasks and grown to near confluency in medium (DMEM/10% FCS for HEK-293 cells, and F-12K medium/10% horse serum/2.5% FCS for HIT-T15 cells, respectively). Medium was then removed and cells washed with PBS lacking calcium and magnesium ions, followed by proteinase treatment with accutase (Sigma-Aldrich, cat. no. A6964). Detached cells were washed and resuspended in assay buffer (1×HBSS; 20 mM HEPES, 0.1% BSA, 2 mM IBMX) and cellular density determined. They were then diluted to 400000 cells/mL and 25 μL-aliquots dispensed to the wells of 96-well plates. For measurement, 25 μL of test compound in assay buffer was added and incubated for 30 minutes at room temperature. After addition of HTRF reagents diluted in lysis buffer, the plates were incubated for 1 hour, followed by measuring the fluorescence ratio at 665 vs. 620 nm. Potency of the agonists was quantified by determining the concentrations that caused 50% of the maximal response/activation (EC50). See Table 7 for exemplary data obtained using the cell line expressing human GPR119.
A general note: TR-FRET usually uses a lanthanide donor and a delayed reading to cut background.
A word on the pEC50: it is −log10 of the EC50, conventionally taken in molar units. In the case of `CN(C)C(=O)CN1Cc2ccc(N3CC[C@@H](Oc4ccc(OCCC5CC5)nc4)C3=O)cc2C1=O` [Example 1-38, 2-[6-[(3R)-3-[[6-(2-cyclopropylethoxy)-3-pyridyl]oxy]-2-oxo-pyrrolidin-1-yl]-1-oxo-isoindolin-2-yl]-N,N-dimethyl-acetamide], the pEC50 is 7.46.
The result for `CN(C)C(=O)CN1Cc2ccc(N3CC[C@@H](Oc4ccc(OCC5CC5)nc4)C3=O)cc2C1=O` [Example 1-39, 2-[6-[(3R)-3-[[6-(cyclopropylmethoxy)-3-pyridyl]oxy]-2-oxo-pyrrolidin-1-yl]-1-oxo-isoindolin-2-yl]-N,N-dimethyl-acetamide] reads 7.22.
To `COC(=O)CN1Cc2ccc(N3CC[C@@H](Oc4ccc(OCC5CC5)nc4)C3=O)cc2C1=O` [Example 1-40, methyl 2-[6-[(3R)-3-[[6-(cyclopropylmethoxy)-3-pyridyl]oxy]-2-oxo-pyrrolidin-1-yl]-1-oxo-isoindolin-2-yl]acetate] belongs 7.36.
For the molecule `CN(C)C(=O)c1nc2ccc(N3CC[C@@H](Oc4ccc(OCC5CC5)nc4)C3=O)cc2c(=O)n1C` [Example 1-43, 6-[(3R)-3-[[6-(cyclopropylmethoxy)-3-pyridyl]oxy]-2-oxo-pyrrolidin-1-yl]-N,N,3-trimethyl-4-oxo-quinazoline-2-carboxamide], the negative logarithm of the EC50 (pEC50) was 6.35.
To `CN(C)C(=O)c1nc2ccc(N3CC[C@@H](Oc4ccc(OCC5CC5)nc4)C3=O)cc2c(=O)[nH]1` [Example 1-44, 6-[(3R)-3-[[6-(cyclopropylmethoxy)-3-pyridyl]oxy]-2-oxo-pyrrolidin-1-yl]-N,N-dimethyl-4-oxo-3H-quinazoline-2-carboxamide] belongs 6.56.
To `CN(CCO)C(=O)CN1Cc2ccc(N3CC[C@@H](Oc4ccc(OCC(F)(F)F)nc4)C3=O)cc2C1=O` [Example 1-45, N-(2-hydroxyethyl)-N-methyl-2-[1-oxo-6-[(3R)-2-oxo-3-[[6-(2,2,2-trifluoroethoxy)-3-pyridyl]oxy]pyrrolidin-1-yl]isoindolin-2-yl]acetamide] belongs 6.75; to `O=C(CN1Cc2ccc(N3CC[C@@H](Oc4ccc(OCC(F)(F)F)nc4)C3=O)cc2C1=O)N1CCC(O)CC1` [Example 1-46, 2-[2-(4-hydroxy-1-piperidyl)-2-oxo-ethyl]-6-[(3R)-2-oxo-3-[[6-(2,2,2-trifluoroethoxy)-3-pyridyl]oxy]pyrrolidin-1-yl]isoindolin-1-one], 6.74.
To `O=C(CN1Cc2ccc(N3CC[C@@H](Oc4ccc(OCC(F)(F)F)nc4)C3=O)cc2C1=O)N1CC(O)C1` [Example 1-47, 2-[2-(3-hydroxyazetidin-1-yl)-2-oxo-ethyl]-6-[(3R)-2-oxo-3-[[6-(2,2,2-trifluoroethoxy)-3-pyridyl]oxy]pyrrolidin-1-yl]isoindolin-1-one] belongs 6.66; to `CN(C)C(=O)CN1Cc2ccc(N3CC[C@@H](Oc4ccc(Oc5ccc(F)cc5F)nc4)C3=O)cc2C1=O` [Example 1-48, 2-[6-[(3R)-3-[[6-(2,4-difluorophenoxy)-3-pyridyl]oxy]-2-oxo-pyrrolidin-1-yl]-1-oxo-isoindolin-2-yl]-N,N-dimethyl-acetamide], 7.14.
On to `CN(C)C(=O)CN1Cc2ncc(N3CC[C@@H](Oc4ccc(OCC(F)(F)F)nc4)C3=O)cc2C1=O` [Example 1-49, N,N-dimethyl-2-[5-oxo-3-[(3R)-2-oxo-3-[[6-(2,2,2-trifluoroethoxy)-3-pyridyl]oxy]pyrrolidin-1-yl]-7H-pyrrolo[3,4-b]pyridin-6-yl]acetamide], for which the pEC50 was 6.97.
Regarding `C[S+]([O-])CN1Cc2ccc(N3CC[C@@H](Oc4ccc(Oc5ccc(F)cc5)nc4)C3=O)cc2C1=O` (stereo partly drawn) [Example 1-50, 6-[(3R)-3-[[6-(4-fluorophenoxy)-3-pyridyl]oxy]-2-oxo-pyrrolidin-1-yl]-2-(methylsulfinylmethyl)isoindolin-1-one], the pEC50 was 7.19.
To `CSCN1Cc2ccc(N3CC[C@@H](Oc4ccc(OCC5CC5)nc4)C3=O)cc2C1=O` [Example 1-51, 6-[(3R)-3-[[6-(cyclopropylmethoxy)-3-pyridyl]oxy]-2-oxo-pyrrolidin-1-yl]-2-(methylsulfanylmethyl)isoindolin-1-one] belongs 7.24; to `C[S+]([O-])CN1Cc2ccc(N3CC[C@@H](Oc4ccc(OCC5CC5)nc4)C3=O)cc2C1=O` (stereo partly drawn) [Example 1-52, 6-[(3R)-3-[[6-(cyclopropylmethoxy)-3-pyridyl]oxy]-2-oxo-pyrrolidin-1-yl]-2-(methylsulfinylmethyl)isoindolin-1-one], 6.91.
Regarding `CS(=O)(=O)CN1Cc2ccc(N3CC[C@@H](Oc4ccc(Oc5ccc(F)cc5)nc4)C3=O)cc2C1=O` [Example 1-53, 6-[(3R)-3-[[6-(4-fluorophenoxy)-3-pyridyl]oxy]-2-oxo-pyrrolidin-1-yl]-2-(methylsulfonylmethyl)isoindolin-1-one], the pEC50 is 7.01.
To `C[S+]([O-])CN1Cc2ccc(N3CC[C@@H](Oc4ccc(OCC(F)(F)F)nc4)C3=O)cc2C1=O` (stereo partly drawn) [Example 1-54, 2-(methylsulfinylmethyl)-6-[(3R)-2-oxo-3-[[6-(2,2,2-trifluoroethoxy)-3-pyridyl]oxy]pyrrolidin-1-yl]isoindolin-1-one] belongs 7.18; to `C[S+]([O-])CN1Cc2ncc(N3CC[C@@H](Oc4ccc(Oc5ccc(F)cc5)nc4)C3=O)cc2C1=O` (stereo partly drawn) [Example 1-55, 3-[(3R)-3-[[6-(4-fluorophenoxy)-3-pyridyl]oxy]-2-oxo-pyrrolidin-1-yl]-6-(methylsulfinylmethyl)-7H-pyrrolo[3,4-b]pyridin-5-one], 6.97; to `NC(=O)CN1Cc2ccc(N3CC[C@@H](Oc4ccc(OCC(F)(F)F)nc4)C3=O)cc2C1=O` [Example 1-56, 2-[1-oxo-6-[(3R)-2-oxo-3-[[6-(2,2,2-trifluoroethoxy)-3-pyridyl]oxy]pyrrolidin-1-yl]isoindolin-2-yl]acetamide], 7.29.
To `C[S+]([O-])CN1Cc2ncc(N3CC[C@@H](Oc4ccc(C(=O)C5CC5)nc4)C3=O)cc2C1=O` (stereo partly drawn) [Example 1-57, 3-[(3R)-3-[[6-(cyclopropanecarbonyl)-3-pyridyl]oxy]-2-oxo-pyrrolidin-1-yl]-6-(methylsulfinylmethyl)-7H-pyrrolo[3,4-b]pyridin-5-one] belongs 5.95; to `C[S+]([O-])CN1Cc2ccc(N3CC[C@@H](Oc4ccc(C(=O)C5CC5)nc4)C3=O)cc2C1=O` (stereo partly drawn) [Example 1-58, 6-[(3R)-3-[[6-(cyclopropanecarbonyl)-3-pyridyl]oxy]-2-oxo-pyrrolidin-1-yl]-2-(methylsulfinylmethyl)isoindolin-1-one], 6.17; to `CS(=O)(=O)CN1Cc2ccc(N3CC[C@@H](Oc4ccc(C(=O)C5CC5)nc4)C3=O)cc2C1=O` [Example 1-59, 6-[(3R)-3-[[6-(cyclopropanecarbonyl)-3-pyridyl]oxy]-2-oxo-pyrrolidin-1-yl]-2-(methylsulfonylmethyl)isoindolin-1-one], 6.35.
As to `C[S+]([O-])CN1Cc2ccc(N3CC[C@@H](Oc4ccc(C(=O)C5CC5)cc4)C3=O)cc2C1=O` (stereo partly drawn) [Example 1-60, 6-[(3R)-3-[4-(cyclopropanecarbonyl)phenoxy]-2-oxo-pyrrolidin-1-yl]-2-(methylsulfinylmethyl)isoindolin-1-one], the pEC50 was 6.83.

Values taken from patent US9908868B2, “Isoindolinone compounds as GPR119 modulators for the treatment of diabetes, obesity, dyslipidemia and related disorders” (SANOFI, priority 2014, dated 2018).
